Reference: patent US20130102619A1, “2-PYRIDYLOXY-4-NITRILE OREXIN RECEPTOR ANTAGONISTS” (priority 2011, published 2013)

What was measured:
rat orexin-1 receptor = rat orexin-1 receptor (Rattus norvegicus (Rat), UniProt P56718); experiment: FLIPR Ca2+ Flux Assay, CHO cells expressing rat orexin-1 receptor; type: cell-based; details: 70 pM Ala-6,12 orexin-A agonist, read-out: hOX1R FLIPR IC50;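 also: concentration giving 50% inhibition of the agonist-induced calcium response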
Protocol: (§1) The utility of the compounds in accordance with the present invention as orexin receptor OX1R and/or OX2R antagonists may be readily determined without undue experimentation by methodology well known in the art, including the “FLIPR Ca^2+ Flux Assay” (Okumura et al., Biochem. Biophys. Res. Comm. 280:976-981, 2001). In a typical experiment the OX1 and OX2 receptor antagonistic activity of the compounds of the present invention was determined in accordance with the following experimental method. For intracellular calcium measurements, Chinese hamster ovary (CHO) cells expressing the rat orexin-1 receptor or the human orexin-2 receptor, are grown in Iscove's modified DMEM containing 2 mM L-glutamine, […], 1% hypoxanthine-thymidine supplement, 100 U/ml penicillin, 100 ug/ml streptomycin and 10% heat-inactivated fetal calf serum (FCS). The cells are seeded at 20,000 cells/well into Becton-Dickinson black 384-well clear bottom sterile plates coated with poly-D-lysine. All reagents were from GIBCO-Invitrogen Corp. The seeded plates are incubated overnight at 37° C. and 5% CO2. Ala-6,12 human orexin-A as the agonist is prepared as a 1 mM stock solution in 1% bovine serum albumin (BSA) and diluted in assay buffer (HBSS containing 20 mM HEPES, 0.1% BSA and 2.5 mM probenecid, pH7.4) for use in the assay at a final concentration of 70 pM. Test compounds are prepared as 10 mM stock solution in DMSO, then diluted in 384-well plates, first in DMSO, then assay buffer. On the day of the assay, cells are washed 3 times with 100 ul assay buffer and then incubated for 60 min (37° C., 5% CO2) in 60 ul assay buffer containing 1 uM Fluo-4AM ester, 0.02% pluronic acid, and 1% BSA. The dye loading solution is then aspirated and cells are washed 3 times with 100 ul assay buffer. 30 ul of that same buffer is left in each well. Within the Fluorescent Imaging Plate Reader (FLIPR, Molecular Devices), test compounds are added to the plate in a volume of 25 ul, incubated for 5 min and finally 25 ul of agonist is added. Fluorescence is measured for each well at 1 second intervals for 5 minutes and the height of each fluorescence peak is compared to the height of the fluorescence peak induced by 70 pM Ala-6,12 orexin-A with buffer in place of antagonist. […] Alternatively, compound potency can be assessed by a radioligand binding assay (described in Bergman et. al. Bioorg. Med. Chem. Lett. 2008, 18, 1425-1430) in which the inhibition constant (Ki) is determined in membranes prepared from CHO cells expressing either the OX1 or OX2 receptor. The intrinsic orexin receptor antagonist activity of a compound which may be used in the present invention may be determined by these assays.

human orexin-2 receptor [1] = target: T1, human orexin-2 receptor (Homo sapiens (Human), UniProt O43614); experiment: radioligand binding assay, orexin-2 receptor (membranes from CHO cells); details: CHO cell membranes, read-out: hOX2 hKi
T1 sequence (O43614 whole entry): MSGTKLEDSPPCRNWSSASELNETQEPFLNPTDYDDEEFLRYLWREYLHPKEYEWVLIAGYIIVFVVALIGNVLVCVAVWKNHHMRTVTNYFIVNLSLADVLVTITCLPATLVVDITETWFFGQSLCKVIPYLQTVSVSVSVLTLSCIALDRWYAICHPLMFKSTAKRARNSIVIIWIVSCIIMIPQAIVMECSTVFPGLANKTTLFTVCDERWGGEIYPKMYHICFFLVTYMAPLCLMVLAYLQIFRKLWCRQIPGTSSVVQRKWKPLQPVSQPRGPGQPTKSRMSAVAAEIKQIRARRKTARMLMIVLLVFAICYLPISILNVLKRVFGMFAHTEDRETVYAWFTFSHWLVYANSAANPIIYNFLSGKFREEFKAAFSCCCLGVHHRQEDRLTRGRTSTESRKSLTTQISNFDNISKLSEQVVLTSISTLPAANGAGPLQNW
Protocol: as §1

OX1 receptor (hOX1) = OX1 receptor (hOX1) (Homo sapiens, UniProt O43613); experiment: radioligand binding assay, orexin-1 receptor (membranes from CHO cells); details: CHO cell membranes, read-out: hOX1 hKi
Protocol: In a typical experiment the OX1 and OX2 receptor antagonistic activity of the compounds of the present invention was determined in accordance with the following experimental method. For intracellular calcium measurements, Chinese hamster ovary (CHO) cells expressing the rat orexin-1 receptor or the human orexin-2 receptor, are grown in Iscove's modified DMEM containing 2 mM L-glutamine, […], 1% hypoxanthine-thymidine supplement, 100 U/ml penicillin, 100 ug/ml streptomycin and 10% heat-inactivated fetal calf serum (FCS). The cells are seeded at 20,000 cells/well into Becton-Dickinson black 384-well clear bottom sterile plates coated with poly-D-lysine. All reagents were from GIBCO-Invitrogen Corp. The seeded plates are incubated overnight at 37° C. and 5% CO2. Ala-6,12 human orexin-A as the agonist is prepared as a 1 mM stock solution in 1% bovine serum albumin (BSA) and diluted in assay buffer (HBSS containing 20 mM HEPES, 0.1% BSA and 2.5 mM probenecid, pH7.4) for use in the assay at a final concentration of 70 pM. Test compounds are prepared as 10 mM stock solution in DMSO, then diluted in 384-well plates, first in DMSO, then assay buffer. On the day of the assay, cells are washed 3 times with 100 ul assay buffer and then incubated for 60 min (37° C., 5% CO2) in 60 ul assay buffer containing 1 uM Fluo-4AM ester, 0.02% pluronic acid, and 1% BSA. The dye loading solution is then aspirated and cells are washed 3 times with 100 ul assay buffer. 30 ul of that same buffer is left in each well. Within the Fluorescent Imaging Plate Reader (FLIPR, Molecular Devices), test compounds are added to the plate in a volume of 25 ul, incubated for 5 min and finally 25 ul of agonist is added. Fluorescence is measured for each well at 1 second intervals for 5 minutes and the height of each fluorescence peak is compared to the height of the fluorescence peak induced by 70 pM Ala-6,12 orexin-A with buffer in place of antagonist. […] Alternatively, compound potency can be assessed by a radioligand binding assay (described in Bergman et. al. Bioorg. Med. Chem. Lett. 2008, 18, 1425-1430) in which the inhibition constant (Ki) is determined in membranes prepared from CHO cells expressing either the OX1 or OX2 receptor. The intrinsic orexin receptor antagonist activity of a compound which may be used in the present invention may be determined by these assays.

human orexin-2 receptor [2] = target: T1, human orexin-2 receptor; experiment: FLIPR Ca2+ Flux Assay, CHO cells expressing human orexin-2 receptor; type: cell-based; details: 70 pM Ala-6,12 orexin-A agonist, read-out: hOX2R FLIPR IC50
Protocol: as §1

rat orexin-1 receptor, sequence (P56718 whole entry): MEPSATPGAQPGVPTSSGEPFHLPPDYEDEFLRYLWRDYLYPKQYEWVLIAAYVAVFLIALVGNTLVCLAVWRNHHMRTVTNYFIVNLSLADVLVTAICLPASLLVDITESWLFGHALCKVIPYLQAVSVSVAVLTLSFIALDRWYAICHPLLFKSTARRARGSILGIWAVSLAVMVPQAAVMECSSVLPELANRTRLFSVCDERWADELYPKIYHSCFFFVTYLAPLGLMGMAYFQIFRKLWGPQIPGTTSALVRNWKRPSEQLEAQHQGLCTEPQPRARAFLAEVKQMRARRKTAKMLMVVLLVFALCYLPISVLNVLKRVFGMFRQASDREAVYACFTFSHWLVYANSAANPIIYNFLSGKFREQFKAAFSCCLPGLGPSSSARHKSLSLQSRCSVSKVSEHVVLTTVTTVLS

SMILES: Cc1cccc(-n2nccn2)c1C(=O)N1C[C@H](Oc2cc(C#N)ccn2)CC[C@H]1C [Example 4, 2-{[(3R,6R)-6-methyl-1-{[2-methyl-6-(2H-1,2,3-triazol-2-yl)phenyl]carbonyl}piperidin-3-yl]oxy}pyridine-4-carbonitrile]
- IC50 (rat orexin-1 receptor): > 10 µM
- Ki (human orexin-2 receptor [1]): 2.3 nM
- Ki (OX1 receptor (hOX1)): 0.932 µM
- IC50 (human orexin-2 receptor [2]): 29 nM

SMILES: Cc1cccc(C(=O)N2C[C@H](Oc3cc(C#N)ccn3)CC[C@H]2C)c1-n1nccn1 [Example 5, 2-{[(3R,6R)-6-methyl-1-{[3-methyl-2-(2H-1,2,3-triazol-2-yl)phenyl]carbonyl}piperidin-3-yl]oxy}pyridine-4-carbonitrile]
- IC50 (rat orexin-1 receptor): 2.33 µM
- Ki (human orexin-2 receptor [1]): 3 nM
- Ki (OX1 receptor (hOX1)): 0.669 µM
- IC50 (human orexin-2 receptor [2]): 17 nM

SMILES: C[C@@H]1CC[C@@H](Oc2cc(C#N)ccn2)CN1C(=O)c1cccc(F)c1-n1nccn1 [Example 6, 2-{[(3R,6R)-1-{[3-fluoro-2-(2H-1,2,3-triazol-2-yl)phenyl]carbonyl}-6-methylpiperidin-3-yl]oxy}pyridine-4-carbonitrile]
- IC50 (rat orexin-1 receptor): > 10 µM
- Ki (human orexin-2 receptor [1]): 5.5 nM
- Ki (OX1 receptor (hOX1)): 1.9 µM
- IC50 (human orexin-2 receptor [2]): 18 nM

SMILES: C[C@@H]1CC[C@@H](Oc2cc(C#N)ccn2)CN1C(=O)c1ccc(Cl)cc1-n1nccn1 [Example 7, 2-{[(3R,6R)-1-{[4-chloro-2-(2H-1,2,3-triazol-2-yl)phenyl]carbonyl}-6-methylpiperidin-3-yl]oxy}pyridine-4-carbonitrile]
- IC50 (rat orexin-1 receptor): 3.84 µM
- Ki (human orexin-2 receptor [1]): 1.1 nM
- Ki (OX1 receptor (hOX1)): 0.997 µM
- IC50 (human orexin-2 receptor [2]): 17 nM

SMILES: C[C@@H]1CC[C@@H](Oc2cc(C#N)ccn2)CN1C(=O)c1nscc1-n1nccn1 [Example 11, 2-{[(3R,6R)-6-methyl-1-{[4-(2H-1,2,3-triazol-2-yl)isothiazol-3-yl]carbonyl}piperidin-3-yl]oxy}pyridine-4-carbonitrile]
- Ki (human orexin-2 receptor [1]): 94 nM
- Ki (OX1 receptor (hOX1)): 13 µM

SMILES: C[C@@H]1CC[C@@H](Oc2cc(C#N)ccn2)CN1C(=O)c1cn(C)nc1-n1nccn1 [Example 12, 2-{[(3R,6R)-6-methyl-1-{[1-methyl-3-(2H-1,2,3-triazol-2-yl)-1H-pyrazol-4-yl]carbonyl}piperidin-3-yl]oxy}pyridine-4-carbonitrile]
- Ki (human orexin-2 receptor [1]): 151 nM
- Ki (OX1 receptor (hOX1)): 5.64 µM

SMILES: Cc1nsc(-n2nccn2)c1C(=O)N1C[C@H](Oc2cc(C#N)ccn2)CC[C@H]1C [Example 13, 2-{[(3R,6R)-6-methyl-1-{[3-methyl-5-(2H-1,2,3-triazol-2-yl)isothiazol-4-yl]carbonyl}piperidin-3-yl]oxy}pyridin-4-carbonitrile]
- Ki (human orexin-2 receptor [1]): 137 nM
- Ki (OX1 receptor (hOX1)): 34.5 µM

SMILES: C[C@@H]1CC[C@@H](Oc2cc(C#N)ccn2)CN1C(=O)c1cc(Cl)ccc1-n1nccn1 [Example 16, 2-{[(3R,6R)-1-{[5-chloro-2-(2H-1,2,3-triazol-2-yl)phenyl]carbonyl}-6-methylpiperidin-3-yl]oxy}pyridine-4-carbonitrile]
- Ki (human orexin-2 receptor [1]): 57 nM
- Ki (OX1 receptor (hOX1)): 5.64 µM

SMILES: C[C@@H]1CC[C@@H](Oc2cc(C#N)ccn2)CN1C(=O)c1cc(C(N)=O)ccc1-n1nccn1 [Example 18, 3-({(2R,5R)-5-[(4-cyanopyridin-2-yl)oxy]-2-methylpiperidin-1-yl}carbonyl)-4-(2H-1,2,3-triazol-2-yl)benzamide]
- Ki (human orexin-2 receptor [1]): 134 nM
- Ki (OX1 receptor (hOX1)): 1.29 µM

SMILES: CCOc1ccc(C(=O)N2C[C@H](Oc3cc(C#N)ccn3)CC[C@H]2C)c(-n2nccn2)c1 [Example 21, 2-{[(3R,6R)-1-{[4-ethoxy-2-(2H-1,2,3-triazol-2-yl)phenyl]carbonyl}-6-methylpiperidin-3-yl]oxy}pyridine-4-carbonitrile]
- Ki (human orexin-2 receptor [1]): 3920 nM
- Ki (OX1 receptor (hOX1)): 23.2 µM

SMILES: C[C@@H]1CC[C@@H](Oc2cc(C#N)ccn2)CN1C(=O)c1ccc(OCF)cc1-n1nccn1 [Example 23, 2-{[(3R,6R)-1-{[4-(fluoromethoxy)-2-(2H-1,2,3-triazol-2-yl)phenyl]carbonyl}-6-methylpiperidin-3-yl]oxy}pyridine-4-carbonitrile]
- Ki (human orexin-2 receptor [1]): 35 nM
- Ki (OX1 receptor (hOX1)): 7.84 µM

SMILES: C[C@@H]1CC[C@@H](Oc2cc(C#N)ccn2)CN1C(=O)c1ccc(OC(F)F)cc1-n1nccn1 [Example 24, 2-{[(3R,6R)-1-{[4-(difluoromethoxy)-2-(2H-1,2,3-triazol-2-yl)phenyl]carbonyl}-6-methylpiperidin-3-yl]oxy}pyridine-4-carbonitrile]
- Ki (human orexin-2 receptor [1]): 79 nM
- Ki (OX1 receptor (hOX1)): 23.9 µM

SMILES: C[C@@H]1CC[C@@H](Oc2cc(C#N)ccn2)CN1C(=O)c1ccc(OCCO)cc1-n1nccn1 [Example 25, 2-{[(3R,6R)-1-{[4-(2-hydroxyethoxy)-2-(2H-1,2,3-triazol-2-yl)phenyl]carbonyl}-6-methylpiperidin-3-yl]oxy}pyridine-4-carbonitrile]
- Ki (human orexin-2 receptor [1]): 10900 nM
- Ki (OX1 receptor (hOX1)): 9.44 µM

SMILES: Cc1ccc(C(=O)N2C[C@H](Oc3cc(C#N)ccn3)CC[C@H]2C)c(-n2nccn2)n1 [Example 26, 2-{[(3R,6R)-6-methyl-1-{[6-methyl-2-(2H-1,2,3-triazol-2-yl)pyridin-3-yl]carbonyl}piperidin-3-yl]oxy}pyidine-4-carbonitrile]
- Ki (human orexin-2 receptor [1]): 162 nM
- Ki (OX1 receptor (hOX1)): 9.44 µM

SMILES: C[C@@H]1CC[C@@H](Oc2cc(C#N)ccn2)CN1C(=O)c1ccc(C(F)(F)F)nc1-n1nccn1 [Example 27, 2-{[(3R,6R)-6-methyl-1-{[2-(2H-1,2,3-triazol-2-yl)-6-(trifluoromethyl)pyridin-3-yl]carbonyl}piperidin-3-yl]oxy}pyridine-4-carbonitrile]
- Ki (human orexin-2 receptor [1]): 1040 nM
- Ki (OX1 receptor (hOX1)): 9.44 µM

SMILES: COc1ccc(C(=O)N2C[C@H](Oc3cc(C#N)ccn3)CC[C@H]2C)c(Cl)n1 [Example 28, 2-({(3R,6R)-1-[(2-chloro-6-methoxypyridin-3-yl)carbonyl]-6-methylpiperidin-3-yl}oxy)pyridine-4-carbonitrile]
- Ki (human orexin-2 receptor [1]): 618 nM
- Ki (OX1 receptor (hOX1)): 2.82 µM

SMILES: C[C@@H]1CC[C@@H](Oc2cc(C#N)ccn2)CN1C(=O)c1ccccc1-n1ncnn1 [Example 30, 2-{[(3R,6R)-6-methyl-1-{[2-(2H-tetrazol-2-yl)phenyl]carbonyl}piperidin-3-yl]oxy}pyridine-4-carbonitrile]
- IC50 (rat orexin-1 receptor): < 10 µM
- IC50 (human orexin-2 receptor [2]): 110 nM

SMILES: C[C@@H]1CC[C@@H](Oc2cc(C#N)ccn2)CN1C(=O)c1ccsc1-c1ncccn1 [Example 32, 2-({(3R,6R)-6-methyl-1-[(2-pyrimidin-2-ylthiophen-3-yl)carbonyl]piperidin-3-yl}oxy)pyridine-4-carbonitrile]
- IC50 (rat orexin-1 receptor): 6.74 µM
- Ki (human orexin-2 receptor [1]): 2.1 nM
- IC50 (human orexin-2 receptor [2]): 44 nM
